Data taken from paper PMC6974726, “Acetylation changes tau interactome to degrade tau in Alzheimer’s disease animal and organoid models” (Aging Cell, 2019).

Columns and labels:
HDAC 1–11 = assay: HDAC enzymatic assay panel (IC50 heat maps); format: biochemical; conditions: HDAC 1–11, recombinant human enzymes
Description: Data are expressed as mean ± SEM.
The percentages of enzyme activity (relative to DMSO controls) and IC50 values were calculated using the GraphPad Prism 4 program based on a sigmoidal dose-response equation.

HDAC6 = system: HDAC6; design: method as in Fan, Huang, Liou, & Yang, 2018; conditions: ref Fan, Huang, Liou, & Yang, 2018; cited from earlier work

Row | selectivity among HDAC isoforms (heat maps of IC50 values) (HDAC 1–11) | SMILES | acetylation of Hsp90 (HDAC6) | ubiquitination of phosphorylated tau (HDAC6)
1 | no selectivity among HDAC isoforms | Cc1[nH]c2ccccc2c1CCNCc1ccc(/C=C/C(=O)NO)cc1 [panobinostat] |  | 
2 |  | O=C(NO)c1ccc(CNc2cccc3cccnc23)cc1 [MPT0G211] | increased | increased
